The source of these data is patent US20080293749A1, “Pyrrolidine(thi)ones Substituted by Heterocyclic Substituents in The 3-Position” (Gruenenthal GmbH, priority 2005, published 2008).

The IC50 is the concentration needed to halve the response being measured. Higher therefore signals weaker potency. As a reminder, the melting point is the temperature of the solid-liquid transition.

Data set [1] deals with IL-10 production of LPS-activated monocytes. Briefly: Increase in IL-10 production of LPS-activated human monocytes (sandwich ELISA of culture supernatants). The format is cell-based. The conditions noted are these: human CD14-positive monocytes, 1 h preincubation with test substance, 10 μg/ml LPS from E. coli, 24 hours; for EC200: Monocyte. As for the experimental part: (§1) Stimulation of human monocytes with lipopolysaccharide for secretion of IL-10 and IL-12:
(§2) Human monocytes were isolated from peripheral blood mononuclear cells (PBMC), which were obtained from heparinized whole blood by means of a Ficoll density gradient centrifugation. For this, the PBMC were incubated with a monoclonal antibody which is directed against the monocyte-specific surface molecule CD14 and to which superparamagnetic microbeads (Miltenyi Biotech, Bergisch Gladbach) are coupled. For positive selection of the labelled monocytes from the cell mixture of the PBMC, the entire cell suspension was applied to a column with a ferromagnetic carrier matrix and this was placed in a magnetic field. The cells loaded with microbeads were thereby bound to the carrier matrix, and non-labelled cells passed through the column and were discarded. After removing the matrix from the magnetic field, the antibody-laden cells were eluted by rinsing the now demagnetized column with buffer. The purity of this CD14-positive monocyte population obtained in this way is about 95-98%. These monocytes were incubated in a density of 10^6 cells/ml of culture medium (RPMI, supplemented with 10% foetal calf serum) with the test substances, dissolved in DMSO, at 37° C. and 5% CO2 for one hour. 10 μg/ml of LPS from E. coli were then added. After 24 hours, cell-free culture supernatants were taken and tested for the content of IL-10 and IL-12.
(§3) The concentration of IL-12 and IL-10 in the cell culture supernatants was determined by means of sandwich ELISAs using two anti-IL-12 and, respectively, IL-10 monoclonal antibodies (Biosource Europe, Fleurus, Belgium). A reference standard curve with human IL-10 and, respectively, IL-12 was included. The detection limit of the ELISAs was 15 pg/ml.

The test system of data set [2] is IL-12 production of LPS-activated monocytes. Briefly: Inhibition of IL-12 production of LPS-activated human monocytes (sandwich ELISA of culture supernatants). To be noted: human CD14-positive monocytes, 1 h preincubation with test substance, 10 μg/ml LPS from E. coli, 24 hours; for IC50: Monocyte. The format is cell-based. The procedure: as §1, §2, §3
(An ELISA detects its analyte on a solid surface through an enzyme-linked reagent.)

Data set [3] is described as follows: Pharmacokinetics after intravenous administration to rats (plasma concentration/time curves). The format is in vivo. To be noted: 10 mg/kg each, both compounds given together, estimated from the FIGURE. The procedure:
Volumes of 2 ml/kg were administered intravenously to rats through the tail vein. After defined times, blood samples were taken from the retro-orbital plexus and plasma obtained. Plasma concentrations of both compounds were determined using valid bioanalytical methods.

Converted amounts (≈) assume the structure as drawn. Bounds are passed on as bounds.

For the molecule `O=C1CC(N2C=Nc3cc(F)ccc3C2)C(=O)N1` (stereo not shown) [Example 3, 3-(7-fluoro-4H-quinazolin-3-yl)-pyrrolidine-2,5-dione], in data set [1], the EC200 turned out to be 0.4 µg/mL. The molecule further had an IC50 in data set [2] of 0.13 µg/mL (≈ 0.526 µM). Also, the distribution volume in data set [3] is 0.26 L/kg.
Molecule `Cc1cccc2c1CN(C1CC(=O)NC1=O)C=N2` (stereo not shown) [Example 8b, 3-(5-methyl-4H-quinazolin-3-yl)-pyrrolidine-2,5-dione] displayed a melting point of 221 to 224 °C. In data set [1], the EC200 is over 50 µg/mL. The same molecule returned an IC50 in data set [2] of 7.3 µg/mL (≈ 30 µM).
On to `O=C1CC(N2C=Nc3cc4ccccc4cc3C2)C(=O)N1` (stereo not shown) [Example 8c, 3-(4H-benzo[q]quinazolin-3-yl)-pyrrolidine-2,5-dione], for which the “Increase in IL-10 production EC200” value in data set [1] was over 50000 ng/mL. In data set [2], the “Inhibition of IL-12 production IC50” value turned out to be 4 µg/mL.
The molecule `O=C1CC(N2C=Nc3cc(F)c(F)cc3C2)C(=O)N1` (stereo not shown) [Example 8d, 3-(6,7-difluoro-4H-quinazolin-3-yl)-pyrrolidine-2,5-dione] showed an EC200 in data set [1] of over 50 µg/mL. This molecule gave an IC50 in data set [2] of 0.715 µg/mL (≈ 2.7 µM).
`O=C1CC(N2C=Nc3cc(Cl)ccc3C2)C(=O)N1` (stereo not shown) [Example 8g, 3-(7-chloro-4H-quinazolin-3-yl)-pyrrolidine-2,5-dione] had a melting point of 194 °C. In addition, the EC200 in data set [1] was determined as 1 µg/mL. The IC50 in data set [2] amounted to 0.62 µg/mL (≈ 2.35 µM).
Molecule `COc1ccc2c(c1)N=CN(C1CC(=O)NC1=O)C2` (stereo not shown) [Example 9b, 3-(7-methoxy-4H-quinazolin-3-yl)-pyrrolidine-2,5-dione] gave a melting point of 174 to 184 °C. The EC200 in data set [1] came out at 16 µg/mL. In data set [2], this molecule came in with an IC50 of 15 µg/mL (≈ 57.9 µM).
On to `O=C1CC(N2C=Nc3cccc(Cl)c3C2)C(=O)N1` (stereo not shown) [Example 10a, 3-(5-chloro-4H-quinazolin-3-yl)-pyrrolidine-2,5-dione], for which the melting point is 218 °C. For the same molecule, the EC200 in data set [1] was determined as 16 µg/mL. The molecule further gave an IC50 in data set [2] of 0.303 µg/mL (≈ 1.15 µM).
In turn, `O=C1CC(N2C=Nc3ccc(Cl)cc3C2)C(=O)N1` (stereo not shown) [Example 10c, 3-(6-chloro-4H-quinazolin-3-yl)-pyrrolidine-2,5-dione] returned a melting point of 166 °C. In addition, the EC200 in data set [1] is over 50 µg/mL. In data set [2], the IC50 came to 1.17 µg/mL (≈ 4.44 µM).
As to `O=C1CC(N2C=Nc3ccccc3C2)C(=O)N1` (stereo not shown) [Example 11a, 3-(4H-quinazolin-3-yl)-pyrrolidine-2,5-dione], the melting point lay within 168 to 174 °C. The molecule further displayed an EC200 in data set [1] of 5 µg/mL. In data set [2], this molecule came in with an IC50 of 0.6 µg/mL (≈ 2.62 µM).
Molecule `O=C1CC(N2C=Nc3cccc(F)c3C2)C(=O)N1` (stereo not shown) [Example 11b, 3-(5-fluoro-4H-quinazolin-3-yl)-pyrrolidine-2,5-dione] gave a melting point of 184 to 191 °C. For the same molecule, in data set [1], the EC200 turned out to be 5.6 µg/mL. This molecule returned an IC50 in data set [2] of 0.514 µg/mL (≈ 2.08 µM).
Consider `COc1cccc2c1CN(C1CC(=O)NC1=O)C=N2` (stereo not shown) [Example 12a, 3-(5-methoxy-4H-quinazolin-3-yl)-pyrrolidine-2,5-dione], for which the EC200 in data set [1] is over 50 µg/mL. In addition, it took 1.8 µg/mL (≈ 6.94 µM) to reach half-maximal inhibition in data set [2] (IC50).
Molecule `O=C1CC(N2C=Nc3cccc([N+](=O)[O-])c3C2)C(=O)N1` (stereo not shown) [Example 14, 3-(5-nitro-4H-quinazolin-3-yl)-pyrrolidine-2,5-dione] came in with an EC200 in data set [1] of 20 µg/mL. In data set [2], the midpoint of inhibition, the IC50, lay at 5.71 µg/mL (≈ 20.8 µM).
For the molecule `CC1=Nc2ccccc2CN1C1CC(=O)NC1=O` (stereo not shown) [Example 15b, 3-(2-methyl-4H-quinazolin-3-yl)-pyrrolidine-2,5-dione], the melting point was in the range of 72 to 75 °C. The molecule further registered an EC200 in data set [1] of over 50 µg/mL. Besides, the IC50 in data set [2] worked out at 4 µg/mL (≈ 16.5 µM).
The matching figures for `CC1=Nc2cc(Cl)ccc2CN1C1CC(=O)NC1=O` (stereo not shown) [Example 15bb, 3-(7-chloro-2-methyl-4H-quinazolin-3-yl)-pyrrolidine-2,5-dione]: 153 to 155 °C, 5.6 µg/mL and 0.419 µg/mL (≈ 1.51 µM).
In turn, `CC1=Nc2cc(F)ccc2CN1C1CC(=O)NC1=O` (stereo not shown) [Example 15cc, 3-(7-fluoro-2-methyl-4H-quinazolin-3-yl)-pyrrolidine-2,5-dione] came in with an EC200 in data set [1] of 20 µg/mL. The molecule further yielded an IC50 in data set [2] of 6 µg/mL (≈ 23 µM).
Take `CC1=Nc2cc(F)cc(F)c2CN1C1CC(=O)NC1=O` (stereo not shown) [Example 15e, 3-(5,7-difluoro-2-methyl-4H-quinazolin-3-yl)-pyrrolidine-2,5-dione]: the melting point fell in the range of 176 to 178 °C. This molecule registered an EC200 in data set [1] of 3 µg/mL. This molecule showed an IC50 in data set [2] of 0.52 µg/mL (≈ 1.86 µM).
Regarding `CC1=Nc2cccc(Br)c2CN1C1CC(=O)NC1=O` (stereo not shown) [Example 15h, 3-(5-bromo-2-methyl-4H-quinazolin-3-yl)-pyrrolidine-2,5-dione], in data set [1], the EC200 is over 50 µg/mL. Besides, in data set [2], the IC50 came to 4 µg/mL (≈ 12.4 µM).
For `CC1=Nc2cccc(Cl)c2CN1C1CC(=O)NC1=O` (stereo not shown) [Example 15i, 3-(5-chloro-2-methyl-4H-quinazolin-3-yl)-pyrrolidine-2,5-dione], the melting point fell in the range of 163 to 170 °C. The molecule further gave an EC200 in data set [1] of 15 µg/mL. This molecule also yielded an IC50 in data set [2] of 0.884 µg/mL (≈ 3.18 µM).
In the case of `CC1=Nc2cc(F)cc(Cl)c2CN1C1CC(=O)NC1=O` (stereo not shown) [Example 15j, 3-(5-chloro-7-fluoro-2-methyl-4H-quinazolin-3-yl)-pyrrolidine-2,5-dione], the melting point fell in the range of 179 to 181 °C. This molecule had an EC200 in data set [1] of 5 µg/mL. Also, in data set [2], half-maximal inhibition (IC50) was put at 0.521 µg/mL (≈ 1.76 µM).
The like results for `CC1=Nc2cccc(F)c2CN1C1CC(=O)NC1=O` (stereo not shown) [Example 15l, 3-(5-fluoro-2-methyl-4H-quinazolin-3-yl)-pyrrolidine-2,5-dione] were, in that order, 185 °C, 5.6 µg/mL and 2 µg/mL (≈ 7.66 µM).
`CC1=Nc2cc(F)c(F)cc2CN1C1CC(=O)NC1=O` (stereo not shown) [Example 15u, 3-(6,7-difluoro-2-methyl-4H-quinazolin-3-yl)-pyrrolidine-2,5-dione] gave a melting point of 183 to 185 °C. In data set [1], this molecule displayed an EC200 of over 50 µg/mL. For the same molecule, 1.8 µg/mL (≈ 6.45 µM) corresponded to half-maximal inhibition in data set [2] (IC50).
For `O=C1CCC(N2C(=O)c3ccccc3C2=O)C(=O)N1` (stereo not shown) [Thalidomide, thalidomide, reference compound], in data set [1], the EC200 was determined as 20 µg/mL. In data set [2], this molecule yielded an IC50 of 0.07 µg/mL (≈ 0.271 µM).
Turning to `O=C1CC(N2C(=O)c3ccccc3C2=O)C(=O)N1` (stereo not shown) [XXVIII = C1, 2-(2,5-dioxo-pyrrolidin-3-yl)-isoindole-1,3-dione, reference compound], in data set [1], the “Increase in IL-10 production EC200” value is “no increase”. In data set [2], this molecule yielded an IC50 of over 50 µg/mL.
